In ChEMBL document CHEMBL3124860, “Fragment-based identification of amides derived from trans-2-(pyridin-3-yl)cyclopropanecarboxylic acid as potent inhibitors of human nicotinamide phosphoribosyltransferase (NAMPT)” (J Med Chem, 2014):
Values after ≈ are worked out from the molar mass of the structure shown.

How the values were obtained:
[1] = Clearance in human liver microsomes at 1 uM up to 60 mins by LC-MS/MS analysis; type: ADME
[2] = physchem; settings: buffer
[3] = Clearance in CD-1 mouse liver microsomes at 1 uM up to 60 mins by LC-MS/MS analysis; type: ADME, Microsome
[4] = Clearance in CD-1 mouse hepatocytes at 1 uM up to 3 hrs by LC-MS/MS analysis; type: ADME, cell-based, Hepatocyte
[5] = in vitro; settings: dog, MDCK
[6] = buffer, 24 h
[7] = Cmax in NCR nude mouse at 10 mg/kg, po bid after 24 hrs; type: ADME, organism-based; design: dose 10 mg/kg, route oral; settings: in vivo
[8] = AUC (0 to last) in NCR nude mouse at 10 mg/kg, po bid after 24 hrs; type: ADME, organism-based; design: time 0 - last, dose 10 mg/kg, route oral; settings: plasma

SMILES	CLhep predicted at 1 µM [1] [mL/min/kg]	solubility at 24 h [2] [µM]	other results
O=C(Nc1ccc(S(=O)(=O)N2CC3CCC(C2)O3)cc1)[C@@H]1C[C@H]1c1cccnc1 (mixture of isomers)	16		
O=C(Nc1ccc(S(=O)(=O)c2ccccc2)cc1)[C@@H]1C[C@H]1c1ccncc1 (racemic)	9	1 (≈ 0.378 µg/mL)	
O=C(NCc1ccc(S(=O)(=O)c2ccccc2)cc1)[C@@H]1C[C@H]1c1cccnc1 (racemic)	15	15 (≈ 5.89 µg/mL)	
O=C(NCCCCC1CCN(C(=O)c2ccccc2)CC1)[C@@H]1C[C@H]1c1cccnc1 (racemic)	19	223 (≈ 90.4 µg/mL)	
Nc1ccc(CNC(=O)Nc2ccc(S(=O)(=O)c3ccccc3)cc2)cn1	5	99 (≈ 37.9 µg/mL)	
O=C(Nc1ccc(S(=O)(=O)c2cc(F)cc(F)c2)cc1)[C@@H]1C[C@H]1c1cccnc1 (racemic)	12	6 (≈ 2.49 µg/mL)	
O=C(NCCCCCCOc1ccc(Cl)cc1)[C@@H]1C[C@H]1c1cccnc1 (racemic)	19	13 (≈ 4.85 µg/mL)	
O=C(Nc1ccc(S(=O)(=O)c2cccc(OC(F)(F)F)c2)cc1)[C@@H]1C[C@H]1c1cccnc1 (racemic)	10	1 (≈ 0.462 µg/mL)	CLhep predicted at 1 µM [3]: 69 mL/min/kg; CLhep predicted at 1 µM [4]: 49 mL/min/kg; Papp A→B at 10 µM [5]: 7.4 ×10⁻⁶ cm/s
CC(C)n1cc(S(=O)(=O)c2ccc(NC(=O)[C@H]3C[C@@H]3c3cccnc3)cc2)cn1	11	77 (≈ 31.6 µg/mL)	CLhep predicted at 1 µM [3]: 80 mL/min/kg; CLhep predicted at 1 µM [4]: 76 mL/min/kg; Papp A→B at 10 µM [5]: 9.7 ×10⁻⁶ cm/s
Cc1ccc(S(=O)(=O)c2ccc(NC(=O)[C@@H]3C[C@H]3c3cccnc3)cc2)cn1 (racemic)	10	6 (≈ 2.36 µg/mL)	
O=C(Nc1ccc(S(=O)(=O)c2cnn(CC(F)(F)F)c2)cc1)[C@@H]1C[C@H]1c1cccnc1 (racemic)	8	23 (≈ 10.4 µg/mL)	
CCCn1cc(S(=O)(=O)c2ccc(NC(=O)[C@@H]3C[C@H]3c3cccnc3)cc2)cn1 (racemic)	12	48 (≈ 19.7 µg/mL)	CLhep predicted at 1 µM [3]: 75 mL/min/kg; CLhep predicted at 1 µM [4]: 59 mL/min/kg; Papp A→B at 10 µM [5]: 11.5 ×10⁻⁶ cm/s
O=C(/C=C/c1cccnc1)NCCCCC1CCN(C(=O)c2ccccc2)CC1 [DAPORINAD]	15		
O=C(Nc1ccc(S(=O)(=O)c2ccccc2)cc1)[C@@H]1C[C@H]1c1cccnc1 (racemic)			solubility [6]: 20 µM (≈ 7.57 µg/mL); CLhep predicted at 1 µM [3]: 76 mL/min/kg; CLhep predicted at 1 µM [4]: 63 mL/min/kg; Papp A→B at 10 µM [5]: 24 ×10⁻⁶ cm/s
Cc1c(S(=O)(=O)c2ccc(NC(=O)[C@@H]3C[C@H]3c3cccnc3)cc2)cnn1C(C)C (racemic)	19	30 (≈ 12.7 µg/mL)	
CC(C)(C)OC(=O)N1C[C@H]2CCN(C(=O)[C@@H]3C[C@H]3c3cccnc3)[C@H]2C1 (racemic)	18	165 (≈ 59 µg/mL)	
CC(C)n1cc(S(=O)(=O)c2ccc(NC(=O)[C@@H]3C[C@H]3c3cccnc3)cc2)cn1 (racemic)			solubility [6]: 66 µM (≈ 27.1 µg/mL); CLhep predicted at 1 µM [3]: 75 mL/min/kg; CLhep predicted at 1 µM [4]: 60 mL/min/kg; Papp A→B at 10 µM [5]: 10 ×10⁻⁶ cm/s
O=C(Nc1ccc(S(=O)(=O)c2cccc(C(F)(F)F)c2)cc1)[C@@H]1C[C@H]1c1cccnc1 (racemic)	10	1 (≈ 0.446 µg/mL)	
O=C(Nc1ccc(S(=O)(=O)c2cnn(C3CCOCC3)c2)cc1)[C@@H]1C[C@H]1c1cccnc1 (racemic)	15		CLhep predicted at 1 µM [3]: 77 mL/min/kg; CLhep predicted at 1 µM [4]: 51 mL/min/kg

SMILES	CLhep predicted at 1 µM [1] [mL/min/kg]	solubility at 24 h [2] [µM]	other results
Cc1nn(C(C)C)cc1S(=O)(=O)c1ccc(NC(=O)[C@@H]2C[C@H]2c2cccnc2)cc1 (racemic)	16	1 (≈ 0.425 µg/mL)	
O=C(Nc1ccc(S(=O)(=O)c2ccccc2)cc1)[C@@H]1C[C@H]1c1cccnc1 (single isomer, unassigned; enantiomer 2)	7	15 (≈ 5.68 µg/mL)	
N#CN=C(NCCCCCCOc1ccc(Cl)cc1)Nc1ccncc1 [CHS-828]	15	2.2 (≈ 0.818 µg/mL)	
Nc1ccc([C@@H]2C[C@H]2C(=O)NCc2ccc(S(=O)(=O)c3ccccc3)cc2)cn1 (racemic)	9	7 (≈ 2.85 µg/mL)	
O=S1(=O)NC(NCc2ccc(S(=O)(=O)N3CCC(N4CCCC4)CC3)cc2)=Nc2ccncc21	8	104 (≈ 52.5 µg/mL)	Papp A→B at 10 µM [5]: 0.1 ×10⁻⁶ cm/s
CC(C)(O)Cn1cc(S(=O)(=O)c2ccc(NC(=O)[C@@H]3C[C@H]3c3cccnc3)cc2)cn1 (racemic)	3	155 (≈ 68.3 µg/mL)	
CCCn1cc(S(=O)(=O)c2ccc(NC(=O)[C@H]3C[C@@H]3c3cccnc3)cc2)cn1	13	16 (≈ 6.57 µg/mL)	CLhep predicted at 1 µM [3]: 79 mL/min/kg; CLhep predicted at 1 µM [4]: 75 mL/min/kg; Papp A→B at 10 µM [5]: 7.1 ×10⁻⁶ cm/s; Cmax [7]: 34.6 µM; AUC(0-t) at 24 h [8]: 126 µM·h
O=C(Nc1ccc(S(=O)(=O)c2ccccc2)cc1)[C@H]1C[C@@H]1c1cccnc1 (single isomer, unassigned; enantiomer 1)	11	15 (≈ 5.68 µg/mL)	CLhep predicted at 1 µM [3]: 79 mL/min/kg; CLhep predicted at 1 µM [4]: 78 mL/min/kg; Papp A→B at 10 µM [5]: 21.2 ×10⁻⁶ cm/s
CC(C)n1cc(S(=O)(=O)c2ccc(NC(=O)[C@@H]3C[C@H]3c3cccnc3)cc2)cn1	12	59 (≈ 24.2 µg/mL)	
CS(=O)(=O)c1cccc(S(=O)(=O)c2ccc(NC(=O)[C@@H]3C[C@H]3c3cccnc3)cc2)c1 (racemic)	9	1 (≈ 0.457 µg/mL)	CLhep predicted at 1 µM [3]: 74 mL/min/kg; CLhep predicted at 1 µM [4]: 54 mL/min/kg; Papp A→B at 10 µM [5]: 2.7 ×10⁻⁶ cm/s
O=C(Nc1ccc(S(=O)(=O)N2CCOCC2)cc1)[C@@H]1C[C@H]1c1cccnc1 (racemic)	13	88 (≈ 34.1 µg/mL)	
O=C(NCc1ccc(S(=O)(=O)c2ccccc2)cc1)[C@@H]1C[C@H]1c1ccncc1 (racemic)	9	59 (≈ 23.2 µg/mL)	
O=S1(=O)N=C(NCc2ccc(S(=O)(=O)c3ccccc3)cc2)Nc2ccncc21	6	1 (≈ 0.428 µg/mL)	Papp A→B at 10 µM [5]: 0.8 ×10⁻⁶ cm/s
Nc1ccc([C@@H]2C[C@H]2C(=O)Nc2ccc(S(=O)(=O)c3ccccc3)cc2)cn1 (racemic)	6	36 (≈ 14.2 µg/mL)	
CC(C)(C)OC(=O)N1CC2(CCN(C(=O)[C@H]3C[C@@H]3c3cccnc3)C2)C1 (relative stereo)	10	133 (≈ 47.5 µg/mL)	
O=C(Nc1ccc(S(=O)(=O)C2CCOCC2)cc1)[C@@H]1C[C@H]1c1cccnc1 (racemic)	13	93 (≈ 35.9 µg/mL)	
CC(C)(C)OC(=O)N1C[C@@H]2CCN(C(=O)[C@@H]3C[C@H]3c3cccnc3)[C@@H]2C1 (racemic)	18	165 (≈ 59 µg/mL)	
CCn1cc(S(=O)(=O)c2ccc(NC(=O)[C@@H]3C[C@H]3c3cccnc3)cc2)cn1 (racemic)	8	72 (≈ 28.5 µg/mL)	
